From patent US20250236619A1, “FUSED BICYCLIC COMPOUND CONTAINING PYRROLINONE” (CHIA TAI TIANQING PHARMACEUTICAL GROUP CO., LTD., priority 2022, published 2025) come the findings set out here.

Read-outs that look alike come from different tables or passages of the source.

In one experiment the target is HPK1 kinase (Homo sapiens (Human), UniProt Q92918). In words: Assay for in vitro inhibitory activity against HPK1 kinase. Format: biochemical. To be noted: HPK1 1 ng/μL, ATP 1 mM, STK Substrate 1-biotin 500 nM. Here is the method: Experimental Example 1: Assay for In Vitro Inhibitory Activity Against HPK1 Kinase A kinase buffer (Enzymatic buffer 5×) was diluted to 1×, and 10 mM MgCl2, 1 mM DTT, and 0.005% Tween 20 were added. A 100 ng/μL HPK1 (Life technology) stock solution was diluted with the kinase buffer to obtain a 1.67×, 1.67 ng/μL working solution (final concentration: 1 ng/μL), and the working solution was seeded in a 384-well plate at 6 μL/well. Different compounds dissolved in DMSO were added to the wells using a nanoliter pipettor to obtain final concentrations of the compounds of 1000 nM to 0.244 nM (4-fold serial dilution, 7 concentrations in total), and blank control wells (without enzyme) and negative control wells (with enzyme, plus vehicle DMSO) were set; the wells were set in duplicate. After the enzyme and the compounds were incubated at room temperature for 1 h, a 5×, 5 mM ATP dilution (final concentration: 1 mM) in the kinase buffer was mixed with a 5×, […] substrate (Cisbio, STK Substrate 1-biotin; final concentration: 500 nM) in equal volume, and the mixture was added to the plate at 4 µL/well. The plate was sealed with a film and then incubated at room temperature for 2 h. An assay antibody solution was prepared by mixing the antibody STK Antibody-cryptate (Cisbio, 5 μL/test) and a 4×, 500 nM Streptavidin-XL665 (Cisbio; final concentration: 125 nM) in equal volume and added to the plate at 10 μL/well. The plate was incubated at room temperature for 1 h. The signal values (excitation: […]) were measured using a PE Envision multimode microplate reader, and IC50 was calculated by four-parameter fitting.

Experiment [1] relates to p-SLP76 phosphorylation of Jurkat cells. As to the kind of experiment: Assay for inhibitory activity against p-SLP76 phosphorylation of Jurkat cells. Format: cell-based. As to conditions: stimulator CD3CD28, 30 min, read-out: IC50 (nM) for inhibition of p-SLP76 phosphorylation of Jurkat cells. On the procedure: 2.1 Assay for Inhibitory Activity Against p-SLP76 Phosphorylation of Jurkat Cells
Jurkat cells in a good growth state were added to a centrifuge tube, centrifuged, and resuspended. The cell density was adjusted to 6.25×10^6 cells/mL, and the cells were seeded in a 384-well small-volume white plate at […]. Different compounds dissolved in DMSO were added to the wells using a nanoliter pipettor to obtain final concentrations of the compounds of 2500 nM to 10.29 nM, and a control was set; the wells were set in duplicate. After 1 h of cell culture, the stimulator CD3CD28 (manufacturer: stemcell, 4 μL) was added and the cells were incubated at 37° C. for 30 min. 3 μL of lysis buffer (manufacturer: BioAuxilium) was added to each well, and the plate was shaken at room temperature for 30 min. After the lysate was well mixed, 5 μL of pre-mixed antibody (manufacturer: BioAuxilium) in assay buffer was added and the plate was incubated overnight at room temperature. The signal values were measured on a PerkinElmer Envision multimode microplate reader (excitation: 320 nm, emission: 615 nm/665 nm), and IC50 was calculated by four-parameter filling.

Chain of HPK1 kinase (Q92918 whole entry): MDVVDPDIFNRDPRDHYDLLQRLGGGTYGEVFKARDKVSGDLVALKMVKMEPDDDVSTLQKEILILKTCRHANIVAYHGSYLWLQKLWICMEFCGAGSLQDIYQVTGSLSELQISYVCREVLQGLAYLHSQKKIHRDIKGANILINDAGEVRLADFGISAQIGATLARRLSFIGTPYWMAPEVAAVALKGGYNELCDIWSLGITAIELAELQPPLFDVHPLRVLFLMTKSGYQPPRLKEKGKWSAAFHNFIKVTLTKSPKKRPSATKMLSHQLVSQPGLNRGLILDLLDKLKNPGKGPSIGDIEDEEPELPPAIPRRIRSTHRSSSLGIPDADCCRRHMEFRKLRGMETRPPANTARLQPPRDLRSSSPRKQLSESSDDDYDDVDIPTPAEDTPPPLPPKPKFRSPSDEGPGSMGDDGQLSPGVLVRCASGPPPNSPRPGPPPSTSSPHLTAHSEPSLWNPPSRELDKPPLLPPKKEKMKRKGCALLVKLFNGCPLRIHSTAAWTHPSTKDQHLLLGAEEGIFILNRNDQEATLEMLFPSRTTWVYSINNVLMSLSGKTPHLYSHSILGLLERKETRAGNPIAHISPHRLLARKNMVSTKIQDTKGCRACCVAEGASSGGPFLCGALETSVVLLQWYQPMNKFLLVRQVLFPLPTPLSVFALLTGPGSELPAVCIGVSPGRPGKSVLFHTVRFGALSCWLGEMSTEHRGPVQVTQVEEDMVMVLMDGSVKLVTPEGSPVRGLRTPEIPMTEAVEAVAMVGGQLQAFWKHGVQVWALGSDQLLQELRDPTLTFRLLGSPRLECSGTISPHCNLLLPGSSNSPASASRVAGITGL

As for `CN(C)Cc1nc(Nc2cnc(-c3ccnc4c3c3c(n4C)CCC3)c3c2C(=O)NC3)ccc1C1CCOCC1` [Compound I-6], the IC50 (as a rule, the point on the concentration scale where inhibition reaches its midpoint) against HPK1 kinase is 2.5 nM; in experiment [1] (Homo sapiens, 0.5 h), less than 50 nM.

With `CN(C)Cc1nc(Nc2ccc(-c3ccnc4c3c3c(n4C)CCC3)c3c2C(=O)NC3)ccc1C1CCOC1` (centres unmarked) [Compound I-8], the half-maximal inhibitory concentration (IC50) against HPK1 kinase was 3.1 nM; in experiment [1] (Homo sapiens, 0.5 h) it was less than 50 nM.

As to `CN(C)Cc1nc(Nc2cnc(-c3ccnc4c3c3c(n4C)CCC3)c3c2C(=O)NC3)ccc1C1(O)CCOCC1` [Compound I-10], the 50% inhibitory concentration (IC50) was 5.6 nM against HPK1 kinase and 50 to 100 nM in experiment [1] (Homo sapiens, 0.5 h).

Molecule `CN(C)Cc1nc(Nc2ccc(-c3cnn4ccc5ccoc5c34)c3c2C(=O)NC3)ccc1C1CCOCC1` [Compound I-11] registered a 50% inhibitory concentration (IC50) against HPK1 kinase of 1.6 nM.

On to `CN(C)Cc1nc(Nc2ccc(-c3ccnc4c3c3c(n4C)CCC3)c3c2C(=O)NC3)ccc1N1CC[C@@H](O)C1` [Compound I-12], for which 5.1 nM corresponded to half-maximal inhibition against HPK1 kinase (IC50).

`CN(C)Cc1nc(Nc2cnc(-c3ccnc4c3c3c(n4C)CCC3)c3c2C(=O)NC3)ccc1N1CCOCC1` [Compound I-13]: at HPK1 kinase, the IC50 was found to be 3.5 nM.

As to `[2H]C([2H])([2H])N(Cc1nc(Nc2cnc(-c3ccnc4c3c3c(n4C)CCC3)c3c2C(=O)NC3)ccc1C1CCOCC1)C([2H])([2H])[2H]` [Compound I-14], the half-inhibitory concentration (IC50) at HPK1 kinase stood at 1.4 nM.

As to `[2H]C([2H])(c1nc(Nc2cnc(-c3ccnc4c3c3c(n4C)CCC3)c3c2C(=O)NC3)ccc1C1CCOCC1)N(C)C` [Compound I-17], in experiment [1] (Homo sapiens, 0.5 h), the IC50 is less than 50 nM.

Molecule `CN(C)Cc1nc(Nc2ccc(-c3nnc4ccc5c(n34)CCC5)c3c2C(=O)NC3)ccc1C1CCOCC1` [Compound I-18] yielded an IC50 against HPK1 kinase of 9.8 nM.

Turning to `CN(C)Cc1nc(Nc2ccc(-c3ncnc4c3c3c(n4C)CCC3)c3c2C(=O)NC3)ccc1C1CCOCC1` [Compound I-20], half-maximal inhibition at HPK1 kinase (IC50) required 3.2 nM.

For the molecule `CN(C)Cc1nc(Nc2ccc(-c3ncnc4[nH]c5ccccc5c34)c3c2C(=O)NC3)ccc1C1CCOCC1` [Compound I-22], the results for the IC50 (on HPK1 kinase; in experiment [1]) were 7.5 nM and 50 to 100 nM, respectively.

For `CN(C)Cc1nc(Nc2ccc(-c3ncnc4[nH]c5c(c34)CCC5)c3c2C(=O)NC3)ccc1C1CCOCC1` [Compound I-24], in experiment [1] (Homo sapiens, 0.5 h), the IC50 was in the range of 50 to 100 nM.

As to `CN(C)Cc1nc(Nc2ccc(-c3nnc4cc5c(nn34)CCC5)c3c2C(=O)NC3)ccc1C1CCOCC1` [Compound I-26], half-maximal inhibition on HPK1 kinase (IC50) required 16 nM.

Regarding `CN(C)Cc1nc(Nc2ccc(-c3nnc4cc5c(cn34)CCC5)c3c2C(=O)NC3)ccc1C1CCOCC1` [Compound I-27], at HPK1 kinase, the IC50 came to 23 nM.

In the case of `CN(C)Cc1nc(Nc2ccc(-c3cnc4ccc5occc5n34)c3c2C(=O)NC3)ccc1C1CCOCC1` [Compound I-28], the 50% inhibitory concentration (IC50) against HPK1 kinase was 2 nM; in experiment [1] (Homo sapiens, 0.5 h), less than 50 nM.

For the molecule `CN(C)Cc1nc(Nc2ccc(-c3cnn4cc5c(nc34)CCC5)c3c2C(=O)NC3)ccc1C1CCOCC1` [Compound I-30], the 50% inhibitory concentration (IC50) against HPK1 kinase is 3.6 nM; in experiment [1] it was 50 to 100 nM.

In the case of `CN(C)Cc1nc(Nc2ccc(-c3cnc4ccc5c(ccn5C)n34)c3c2C(=O)NC3)ccc1C1CCOCC1` [Compound I-32], the figures for the IC50 (on HPK1 kinase; in experiment [1]) were 4.4 nM and less than 50 nM, respectively.

Consider `CN(C)Cc1nc(Nc2ccc(-c3nnc4ccc5occc5n34)c3c2C(=O)NC3)ccc1C1CCOCC1` [Compound I-33], for which the figures for the IC50 (on HPK1 kinase; in experiment [1]) were 2.9 nM and less than 50 nM, respectively.

As for `CN(C)Cc1nc(Nc2ccc(-c3cnn4c3CC3(CC3)C4)c3c2C(=O)NC3)ccc1C1CCOCC1` [Compound I-34], the concentration for half-maximal inhibition (IC50) in experiment [1] (Homo sapiens, 0.5 h) was less than 50 nM.

Regarding `CN(C)Cc1nc(Nc2ccc(-c3cnc4ccc5c(n34)CCO5)c3c2C(=O)NC3)ccc1C1CCOCC1` [Compound I-35], the IC50 in experiment [1] (Homo sapiens, 0.5 h) fell in the range of 50 to 100 nM.

As for `CN(C)Cc1nc(Nc2ccc(-c3nnc4ccc5c(n34)OCC5)c3c2C(=O)NC3)ccc1C1CCOCC1` [Compound I-36], the IC50 is 5.3 nM at HPK1 kinase and 50 to 100 nM in experiment [1].

Consider `CN(C)Cc1nc(Nc2ccc(-c3cnn4ccc5occc5c34)c3c2C(=O)NC3)ccc1C1CCOCC1` [Compound I-38], for which the IC50 in experiment [1] (Homo sapiens, 0.5 h) is less than 50 nM.

In turn, `CN(C)Cc1nc(Nc2cnc(-c3cnc4ccc5sccc5n34)c3c2C(=O)NC3)ccc1C1CCOCC1` [Compound I-41] displayed an IC50 on HPK1 kinase of 18 nM.

`CN(C)Cc1nc(Nc2ccc(-c3cnc4n3C3CC3C4)c3c2C(=O)NC3)ccc1C1CCOCC1` (centres unmarked) [Compound I-43] yielded an IC50 against HPK1 kinase of 16 nM.

As to `CN(C)Cc1nc(Nc2ccc(-c3cnc4ccc5c(n34)OCC5)c3c2C(=O)NC3)ccc1C1CCOCC1` [Compound I-44], the IC50 on HPK1 kinase was 3.5 nM; in experiment [1] (Homo sapiens, 0.5 h) it was less than 50 nM.

On to `CN(C)Cc1nc(Nc2ccc(-c3cnc4ccc5occc5n34)c3c2C(=O)NC3)ccc1C1(O)CCOCC1` [Compound I-45], for which the 50% inhibitory concentration (IC50) at HPK1 kinase is 3.4 nM; in experiment [1] (Homo sapiens, 0.5 h), less than 50 nM.

For the molecule `CN(C)Cc1nc(Nc2cnc(-c3cnn4ccc5occc5c34)c3c2C(=O)NC3)ccc1C1CCOCC1` [Compound I-46], in experiment [1] (Homo sapiens, 0.5 h), the IC50 was less than 50 nM.

In the case of `CN(C)Cc1nc(Nc2cnc(-c3cnn4ccc5occc5c34)c3c2C(=O)NC3)ccc1N1CCOCC1` [Compound I-47], in experiment [1] (Homo sapiens, 0.5 h), the IC50 is less than 50 nM.

As for `CN(C)Cc1nc(Nc2ccc(-c3cnc4cnc5occc5n34)c3c2C(=O)NC3)ccc1C1CCOCC1` [Compound I-48], the IC50 in experiment [1] (Homo sapiens, 0.5 h) is less than 50 nM.

On to `CN(C)Cc1nc(Nc2ccc(-c3cnn4ccc5occc5c34)c3c2C(=O)NC3)ccc1N1CCN(C)C1=O` [Compound I-49], for which the results for the IC50 (on HPK1 kinase; in experiment [1]) were 6.1 nM and less than 50 nM, respectively.

Regarding `CN(C)Cc1nc(Nc2ccc(-c3cnn4ccc5occc5c34)c3c2C(=O)NC3)ccc1N1CCCC1=O` [Compound I-51], the IC50 at HPK1 kinase was 5.8 nM; in experiment [1] it was less than 50 nM.

For `CN(C)Cc1nc(Nc2ccc(-c3cnc4ccc5occc5n34)c3c2C(=O)NC3)ccc1N1CCCC1=O` [Compound I-52], the IC50 in experiment [1] (Homo sapiens, 0.5 h) was less than 50 nM.

`[2H]C([2H])(c1nc(Nc2ccc(-c3cnn4c3CC3(CC3)C4)c3c2C(=O)NC3)ccc1C1CCOCC1)N(C)C` [Compound I-53]: the IC50 in experiment [1] (Homo sapiens, 0.5 h) was less than 50 nM.

For `CN(C)Cc1nc(Nc2ccc(-c3cnc4cnc5occc5n34)c3c2C(=O)NC3)ccc1C1CCOC1` (centres unmarked) [Compound I-54], the IC50 in experiment [1] (Homo sapiens, 0.5 h) is less than 50 nM.

Turning to `CN(C)Cc1nc(Nc2ccc(-c3cnn4ccc5occc5c34)c3c2C(=O)NC3)ccc1C1CC(=O)N(C)C1` (centres unmarked) [Compound I-59], in experiment [1] (Homo sapiens, 0.5 h), the IC50 was less than 50 nM.

As for `CN(C)Cc1nc(Nc2ccc(-c3cnc4cnc5occc5n34)c3c2C(=O)NC3)ccc1C1CCN(C)C(=O)C1` (centres unmarked) [Compound I-61], the IC50 in experiment [1] (Homo sapiens, 0.5 h) lay within 50 to 100 nM.

Take `CN(C)Cc1nc(Nc2ccc(-c3cnn4ccc5occc5c34)c3c2C(=O)NC3)ccc1C1CCCO1` (centres unmarked) [Compound I-64]: in experiment [1] (Homo sapiens, 0.5 h), the IC50 is less than 50 nM.

For `CN(C)Cc1nc(Nc2ccc(-c3cnc4ccc5occc5n34)c3c2C(=O)NC3)ccc1C1CCN(C)C(=O)C1` (centres unmarked) [Compound I-66], the concentration for half-maximal inhibition (IC50) in experiment [1] (Homo sapiens, 0.5 h) was less than 50 nM.

Consider `CN(C)Cc1nc(Nc2ccc(-c3cnn4c3CC3(CC3)C4)c3c2C(=O)NC3)ccc1C1CCN(C)C(=O)C1` (centres unmarked) [Compound I-67], for which the IC50 in experiment [1] (Homo sapiens, 0.5 h) is less than 50 nM.

On HPK1 kinase, `CN(C)Cc1nc(Nc2ccc(-c3cnc4cnc5occc5n34)c3c2C(=O)NC3)ccc1[C@@H]1CCN(C)C(=O)C1` [Compound I-68] returned a half-maximal inhibitory concentration (IC50) of 7.7 nM.

`CC(=O)N(C)c1ccc(Nc2ccc(-c3cnn4ccc5occc5c34)c3c2C(=O)NC3)nc1CN(C)C` [Compound I-70]: the concentration for half-maximal inhibition (IC50) in experiment [1] (Homo sapiens, 0.5 h) is less than 50 nM.

For `CN(C)Cc1nc(Nc2ccc(-c3cnn4ccc5occc5c34)c3c2C(=O)NC3)ccc1N1CCN(C)C(=O)C1` [Compound I-76], the concentration for half-maximal inhibition (IC50) in experiment [1] (Homo sapiens, 0.5 h) is less than 50 nM.

Regarding `CN(C)Cc1nc(Nc2ccc(-c3cnc4cnc5occc5n34)c3c2C(=O)NC3)ccc1C1CCN(C)CC1` [Compound I-80], the half-maximal inhibitory concentration (IC50) in experiment [1] (Homo sapiens, 0.5 h) was less than 50 nM.

As for `CN(C)Cc1nc(Nc2ccc(-c3cnn4ccc5occc5c34)c3c2C(=O)NC3)ccc1-c1ccn(C)c(=O)c1` [Compound I-81], the half-inhibitory concentration (IC50) in experiment [1] (Homo sapiens, 0.5 h) is less than 50 nM.

Consider `CN(C)Cc1nc(Nc2ccc(-c3ccnc4c3cc3n4CCC3)c3c2C(=O)NC3)ccc1C1CCN(C)C(=O)C1` (centres unmarked) [Compound I-82], for which half-maximal inhibition at HPK1 kinase (IC50) was put at 3 nM.

For the molecule `CNCc1nc(Nc2ccc(-c3cnn4ccc5occc5c34)c3c2C(=O)NC3)sc1C1CCOCC1` [Compound I-85], in experiment [1] (Homo sapiens, 0.5 h), the half-maximal inhibitory concentration (IC50) is less than 50 nM.
